The source of these data is ChEMBL document CHEMBL1201862, “PubChem BioAssay data set” (2004).

Test [1] relates to HeLa. Nature of the test: ATP-based viability loss in HeLa cells – cell-based, CellTiter-Glo luminescence, cherry-pick samples, cytotoxicity control for MITF activator project, dose response (AID 540259). In kind it is functional. The conditions noted are these: Homo sapiens. A general note: In ATP-based viability assays light output follows the ATP content of the culture.
Test [2] concerns the target T1, Corticotropin-releasing factor receptor 2/Corticotropin-releasing factor-binding protein (Homo sapiens, UniProt P24387+Q13324).
T1 sequence (Q13324 whole entry): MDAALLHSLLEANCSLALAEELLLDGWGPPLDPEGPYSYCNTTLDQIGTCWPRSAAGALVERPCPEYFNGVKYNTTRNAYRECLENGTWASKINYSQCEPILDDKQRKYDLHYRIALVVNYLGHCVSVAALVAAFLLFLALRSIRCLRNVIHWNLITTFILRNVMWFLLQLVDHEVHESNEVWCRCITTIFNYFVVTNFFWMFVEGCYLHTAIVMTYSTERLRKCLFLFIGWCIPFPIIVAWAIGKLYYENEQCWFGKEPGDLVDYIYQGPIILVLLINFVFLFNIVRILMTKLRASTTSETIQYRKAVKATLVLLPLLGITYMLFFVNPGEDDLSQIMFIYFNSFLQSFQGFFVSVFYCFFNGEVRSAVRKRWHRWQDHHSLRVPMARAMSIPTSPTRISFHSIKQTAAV
T1 sequence (P24387 whole entry): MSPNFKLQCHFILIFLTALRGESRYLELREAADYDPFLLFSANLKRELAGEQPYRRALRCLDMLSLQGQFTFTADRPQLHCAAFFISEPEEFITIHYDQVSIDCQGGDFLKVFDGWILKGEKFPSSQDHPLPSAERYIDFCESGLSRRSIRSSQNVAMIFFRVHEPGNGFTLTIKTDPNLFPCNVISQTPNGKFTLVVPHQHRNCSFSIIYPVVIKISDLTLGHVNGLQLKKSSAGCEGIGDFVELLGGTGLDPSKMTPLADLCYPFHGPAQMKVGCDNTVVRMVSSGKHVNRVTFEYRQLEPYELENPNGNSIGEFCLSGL
Nature of the test: Dose Response confirmation of uHTS hits for small molecule antagonists of the CRF-binding protein and CRF-R2 receptor complex. The format is functional. The conditions noted are these: read-out: IC50_Mean.

The target in test [3] is T1, Corticotropin-releasing factor receptor 2/Corticotropin-releasing factor-binding protein. Nature of the test: activators of CRF receptor 2 with binding protein – uHTS hits, confirmation (AID 602473). The format is functional. The conditions noted are these: read-out: EC50_Mean.
The target of test [4] is Induced myeloid leukemia cell differentiation protein Mcl-1 (Homo sapiens, UniProt Q07820). The format is functional.
Sequence of Induced myeloid leukemia cell differentiation protein Mcl-1 (Q07820 whole entry): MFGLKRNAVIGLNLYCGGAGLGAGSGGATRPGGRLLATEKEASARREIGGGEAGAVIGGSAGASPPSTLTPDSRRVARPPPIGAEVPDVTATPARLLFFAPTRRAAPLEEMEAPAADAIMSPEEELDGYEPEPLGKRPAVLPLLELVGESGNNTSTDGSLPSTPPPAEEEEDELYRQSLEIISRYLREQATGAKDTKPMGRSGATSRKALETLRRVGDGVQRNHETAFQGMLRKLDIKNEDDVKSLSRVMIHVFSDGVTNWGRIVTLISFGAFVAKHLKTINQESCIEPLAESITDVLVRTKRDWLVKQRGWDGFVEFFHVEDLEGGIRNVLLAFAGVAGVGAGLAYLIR
For test [5], the target named is FAD-linked sulfhydryl oxidase ALR (Homo sapiens, UniProt P55789). Briefly: ALR-catalysed DTT oxidation blockers – biochemical, H2O2 detection, luminescence, cherry-pick, dose response (AID 493248).
Sequence of FAD-linked sulfhydryl oxidase ALR (P55789 whole entry): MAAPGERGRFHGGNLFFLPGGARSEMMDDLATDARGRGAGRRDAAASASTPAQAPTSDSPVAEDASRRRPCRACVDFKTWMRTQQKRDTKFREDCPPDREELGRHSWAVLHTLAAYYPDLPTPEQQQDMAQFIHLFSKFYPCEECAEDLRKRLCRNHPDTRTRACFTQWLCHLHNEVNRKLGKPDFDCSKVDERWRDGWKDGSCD
Test [6] deals with Dual specificity tyrosine-phosphorylation-regulated kinase 1A (Rattus norvegicus, UniProt Q63470). The format is biochemical, Homo sapiens.
For test [7], the target named is Histone-lysine N-methyltransferase NSD2 (Homo sapiens, UniProt O96028). In kind it is biochemical.
Sequence of Histone-lysine N-methyltransferase NSD2 (O96028 whole entry): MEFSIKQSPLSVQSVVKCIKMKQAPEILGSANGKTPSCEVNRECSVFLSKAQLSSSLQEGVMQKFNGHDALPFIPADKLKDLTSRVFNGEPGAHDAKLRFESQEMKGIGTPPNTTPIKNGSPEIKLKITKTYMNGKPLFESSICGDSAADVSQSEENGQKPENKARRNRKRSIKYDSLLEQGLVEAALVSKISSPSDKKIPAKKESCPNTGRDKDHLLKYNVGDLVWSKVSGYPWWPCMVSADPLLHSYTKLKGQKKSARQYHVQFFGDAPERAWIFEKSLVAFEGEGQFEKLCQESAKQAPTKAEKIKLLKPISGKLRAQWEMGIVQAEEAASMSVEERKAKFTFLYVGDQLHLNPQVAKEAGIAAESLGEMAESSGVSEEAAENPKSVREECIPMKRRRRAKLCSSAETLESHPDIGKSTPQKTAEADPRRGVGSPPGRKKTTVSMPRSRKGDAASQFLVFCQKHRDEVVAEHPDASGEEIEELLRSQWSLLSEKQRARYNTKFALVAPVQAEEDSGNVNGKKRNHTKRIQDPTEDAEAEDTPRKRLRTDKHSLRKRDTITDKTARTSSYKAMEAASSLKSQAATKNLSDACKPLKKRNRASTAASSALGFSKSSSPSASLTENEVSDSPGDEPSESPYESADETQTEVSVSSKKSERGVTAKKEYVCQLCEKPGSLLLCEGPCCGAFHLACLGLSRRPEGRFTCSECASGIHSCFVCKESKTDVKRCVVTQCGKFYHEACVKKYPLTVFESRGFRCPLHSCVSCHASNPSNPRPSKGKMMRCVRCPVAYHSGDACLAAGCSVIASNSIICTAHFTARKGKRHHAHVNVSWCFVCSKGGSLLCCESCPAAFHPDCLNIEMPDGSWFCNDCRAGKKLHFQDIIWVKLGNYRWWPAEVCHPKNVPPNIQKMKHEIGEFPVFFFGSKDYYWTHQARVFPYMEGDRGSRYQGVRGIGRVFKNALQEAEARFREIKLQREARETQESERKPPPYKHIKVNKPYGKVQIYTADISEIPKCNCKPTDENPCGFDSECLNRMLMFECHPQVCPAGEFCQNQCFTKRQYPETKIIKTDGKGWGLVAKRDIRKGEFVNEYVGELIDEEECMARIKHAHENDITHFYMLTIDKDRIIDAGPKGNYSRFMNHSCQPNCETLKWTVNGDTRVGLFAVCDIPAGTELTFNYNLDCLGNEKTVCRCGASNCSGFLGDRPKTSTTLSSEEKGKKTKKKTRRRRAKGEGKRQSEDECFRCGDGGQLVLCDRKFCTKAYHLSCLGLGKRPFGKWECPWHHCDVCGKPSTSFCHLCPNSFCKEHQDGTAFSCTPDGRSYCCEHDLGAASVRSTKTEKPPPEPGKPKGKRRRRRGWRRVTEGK
Test [8] deals with HEK293. Nature of the test: PMA/Ionomycin induced NF-kB luciferase assay in 293- NF-kB-Luc stable cells. [Related pubchem assays: 1299, 1270, 1295, 1375, 1287, 1281, 1293, 1291, 1289, 1280, 465, 1364, 1282, 1372, 1365, 1370, 1367, 1366, 1269, 1373, 1292, 1290, 1302, 1371, 1283, 1271, 1294, 1374, 1368, 1369 ]. The format is functional, cell-based. The note with it: Homo sapiens.

For test [9], the target named is Luciferin 4-monooxygenase (Photinus pyralis, UniProt P08659). Briefly: In vitro luciferase assay using purified luciferase. [Related pubchem assays: 1299, 1270, 1295, 1375, 1287, 1281, 1293, 1291, 1289, 1280, 465, 1364, 1282, 1372, 1365, 1370, 1367, 1366, 1266, 1373, 1292, 1290, 1302, 1371, 1283, 1271, 1294, 1374, 1368, 1369 ].
Sequence of Luciferin 4-monooxygenase (P08659 whole entry): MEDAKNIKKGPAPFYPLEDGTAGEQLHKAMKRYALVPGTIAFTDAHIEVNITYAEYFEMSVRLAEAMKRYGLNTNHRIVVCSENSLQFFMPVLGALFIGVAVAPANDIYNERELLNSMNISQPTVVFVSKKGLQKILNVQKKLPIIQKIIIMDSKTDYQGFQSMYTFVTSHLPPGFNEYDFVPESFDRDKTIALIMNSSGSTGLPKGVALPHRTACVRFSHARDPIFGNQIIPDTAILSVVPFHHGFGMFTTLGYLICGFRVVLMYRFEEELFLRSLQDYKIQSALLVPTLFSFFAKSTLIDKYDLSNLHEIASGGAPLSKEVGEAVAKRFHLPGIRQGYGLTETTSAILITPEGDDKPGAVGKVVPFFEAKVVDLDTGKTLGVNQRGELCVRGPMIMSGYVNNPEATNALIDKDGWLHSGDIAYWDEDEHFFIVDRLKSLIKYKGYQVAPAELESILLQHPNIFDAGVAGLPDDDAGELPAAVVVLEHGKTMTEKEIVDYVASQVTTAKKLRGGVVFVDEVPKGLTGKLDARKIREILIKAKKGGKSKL
Test [10] deals with HEK293. Briefly: Cytotoxicity assay in HEK293 cells. [Related pubchem assays (depositor defined):AID1266, AID1269, AID1270, AID1271, AID1280, AID1281, AID1282, AID1283, AID1287, AID1289, AID1290, AID1291, AID1292, AID1293, AID1294, AID1295, AID1299, AID1302, AID1364, AID1365, AID1366, AID1367, AID1369, AID1370, AID1371, AID1372, AID1373, AID1374, AID1375, AID1384 …. The format is functional, cell-based. The conditions noted are these: Homo sapiens.

Test [11] in a line: HEK-293T cell viability reduction – luminescence, B-cell screen hits, cytotoxicity control for BCR NF-kB inhibitor project, dose response (AID 489021).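 Note: HEK-293T cells carrying an NF-kB luciferase reporter; cells exposed to compound for about 14 hours before viability readout.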 The format is functional, cell-based.
Test [12] concerns HEK293. Nature of the test: EBV LMP1 TES2 canonical NF-kB signalling blockers – cell-based, HEK293, luciferase, cherry-pick, dose response (AID 588343). The note with it: Homo sapiens. The format is functional.
For test [13], the system named is HEK293. Briefly: HEK293T cell viability loss, resazurin readout – resazurin fluorescence, cytotoxicity control for NF-kB activator project, SAR follow-up (AID 493251). In kind it is functional, cell-based.
For test [14], the system named is Jurkat. Nature of the test: SAR Analysis of small molecule inhibitors of T-cell specific antigen receptor-induced NF-kB activation in a Jurkat cell line using a luminescence assay - Set 2. [Related pubchem assays (depositor defined):AID435003, AID435012, AID465]. In kind it is functional, cell-based. The note with it: Homo sapiens.
The test system of test [15] is HEK293. Nature of the test: SAR Analysis of small molecule inhibitors of T-cell specific antigen receptor-induced NF-kB activation in a HEK-293T cell line using a luminescence assay - Set 2. [Related pubchem assays (depositor defined):AID435003, AID435012, AID489026]. The conditions noted are these: Homo sapiens. In kind it is functional, cell-based.
Test [16] in a line: NIH-3T3 fibroblast cytotoxicity, dose response, cytotoxicity control, cell-based, fluorescence, Alamar Blue, secondary assay (AID 2327).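 Note: NIH-3T3 mouse fibroblasts cultured with fluconazole at 8 µg/mL.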 The format is functional.
Test [17] is described as follows: fluconazole-exposed Candida albicans growth modulators – fluorescence, retest, confirmation (AID 2467). In kind it is functional, cell-based.
For test [18], the target named is Serine/threonine-protein phosphatase (Candida dubliniensis (strain CD36 / CBS 7987 / NCPF 3949 / NRRLY-17841) (Yeast), UniProt B9W6M3). Nature of the test: blockers of CaCl2-induced CDRE-lacZ signaling – S. cerevisiae, luminescence, secondary, dose response (AID 2388).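 Note: yeast reporter cells carrying a calcineurin-responsive lacZ construct stimulated with calcium chloride; luminescent beta-galactosidase reporter signal in whole cells rather than isolated phosphatase activity; potency for inhibition where a drop in reporter signal means calcineurin blockade.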 In kind it is functional, cell-based.
Sequence of Serine/threonine-protein phosphatase (B9W6M3 whole entry): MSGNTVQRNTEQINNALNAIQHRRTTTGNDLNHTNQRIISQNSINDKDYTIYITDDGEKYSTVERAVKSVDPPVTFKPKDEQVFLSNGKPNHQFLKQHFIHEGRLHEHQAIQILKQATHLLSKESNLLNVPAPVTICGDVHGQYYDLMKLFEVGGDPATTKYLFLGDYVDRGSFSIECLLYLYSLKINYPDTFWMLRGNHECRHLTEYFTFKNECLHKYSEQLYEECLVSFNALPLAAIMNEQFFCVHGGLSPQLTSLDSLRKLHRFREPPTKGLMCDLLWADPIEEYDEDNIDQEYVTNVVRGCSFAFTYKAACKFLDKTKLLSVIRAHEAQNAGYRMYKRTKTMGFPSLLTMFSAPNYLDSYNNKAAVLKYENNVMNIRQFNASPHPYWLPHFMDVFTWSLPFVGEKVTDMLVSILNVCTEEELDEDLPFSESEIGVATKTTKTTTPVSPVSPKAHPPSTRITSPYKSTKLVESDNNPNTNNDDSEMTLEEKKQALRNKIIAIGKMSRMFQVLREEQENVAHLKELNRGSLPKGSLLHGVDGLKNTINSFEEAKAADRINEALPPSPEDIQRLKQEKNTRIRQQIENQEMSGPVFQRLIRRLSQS
Test [19] concerns the target ATP-dependent molecular chaperone HSP82 (Candida albicans (strain WO-1) (Yeast), UniProt C4YTQ8). Nature of the test: steroid-induced GRE reporter decrease in yeast – S. cerevisiae, luminescence, Hsp90 inhibitor project, dose response (AID 2400).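 Note: beta-galactosidase luminescence from glucocorticoid response element reporter as proxy for Hsp90 function; inhibitor potency where signal loss means Hsp90 inhibition.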 The format is functional, cell-based.
Test [20] in a line: luciferase reporter signal suppression in cells – H4 neuroglioma cells, luminescence, dose response (AID 1990). In kind it is functional, cell-based. (A reporter such as luciferase makes a cellular process visible.)
The nature of test [21]: luciferase reporter signal reduction – luminescence, H4-C neuroglioblastoma cells, dose response (AID 2458).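 Note: H4 neuroglioblastoma cells stably carrying a luciferase reporter gene fusion.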 In kind it is functional, cell-based.
Test [22] in a line: cells. In kind it is functional, cell-based.
A short description of test [23]: alpha-synuclein stem-loop luciferase translation blockers – H4 neuroglioma cells, luminescence, confirmation (AID 1988). The format is functional, cell-based.
The nature of test [24]: alpha-synuclein stem-loop translation blockers – luminescence, H4 neuroglioblastoma cells, dose confirmation, confirmation (AID 2454).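 Note: H4 neuroglioblastoma cells carrying an alpha-synuclein 5'UTR luciferase reporter; potency for inhibition of the luciferase signal.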 In kind it is functional, cell-based.
Test [25] deals with Exodeoxyribonuclease V (Escherichia coli (strain K12), UniProt P04993+P07648+P08394). Briefly: RecBCD inhibition via phage-restricted bacterial growth – absorbance, V66 E. coli, mutant T4 phage, counter-screen for AddAB inhibitor project, dose response (AID 492957). The format is functional, cell-based, Escherichia coli str. K-12 substr. MG1655.
Test [26] deals with Intestinal-type alkaline phosphatase (Mus musculus, UniProt P24822). Briefly: PubChem AID 488874. The format is functional.
Sequence of Intestinal-type alkaline phosphatase (Mus musculus, UniProt P24822) (P24822 whole entry): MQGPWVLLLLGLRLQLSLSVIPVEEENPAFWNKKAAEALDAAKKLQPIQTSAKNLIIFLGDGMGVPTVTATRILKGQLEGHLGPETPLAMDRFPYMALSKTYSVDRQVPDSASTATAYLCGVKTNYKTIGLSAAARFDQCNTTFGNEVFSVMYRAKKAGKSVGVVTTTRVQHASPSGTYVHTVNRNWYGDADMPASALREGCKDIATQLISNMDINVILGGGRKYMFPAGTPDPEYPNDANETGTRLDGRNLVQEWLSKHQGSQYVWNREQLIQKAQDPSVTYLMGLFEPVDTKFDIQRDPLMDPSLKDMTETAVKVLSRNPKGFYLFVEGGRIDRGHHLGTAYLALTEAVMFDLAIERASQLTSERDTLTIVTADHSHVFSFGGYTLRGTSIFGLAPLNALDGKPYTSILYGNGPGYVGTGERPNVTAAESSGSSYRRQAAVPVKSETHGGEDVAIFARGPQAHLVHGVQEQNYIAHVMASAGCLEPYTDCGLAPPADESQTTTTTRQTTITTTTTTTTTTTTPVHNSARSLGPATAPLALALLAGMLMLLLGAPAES
Test [27] deals with T2, Intestinal-type alkaline phosphatase (Homo sapiens, UniProt P09923). Briefly: human intestinal alkaline phosphatase activators, dose response, biochemical, luminescence, uHTS hits (AID 463120). The format is functional.
T2 sequence (P09923 whole entry): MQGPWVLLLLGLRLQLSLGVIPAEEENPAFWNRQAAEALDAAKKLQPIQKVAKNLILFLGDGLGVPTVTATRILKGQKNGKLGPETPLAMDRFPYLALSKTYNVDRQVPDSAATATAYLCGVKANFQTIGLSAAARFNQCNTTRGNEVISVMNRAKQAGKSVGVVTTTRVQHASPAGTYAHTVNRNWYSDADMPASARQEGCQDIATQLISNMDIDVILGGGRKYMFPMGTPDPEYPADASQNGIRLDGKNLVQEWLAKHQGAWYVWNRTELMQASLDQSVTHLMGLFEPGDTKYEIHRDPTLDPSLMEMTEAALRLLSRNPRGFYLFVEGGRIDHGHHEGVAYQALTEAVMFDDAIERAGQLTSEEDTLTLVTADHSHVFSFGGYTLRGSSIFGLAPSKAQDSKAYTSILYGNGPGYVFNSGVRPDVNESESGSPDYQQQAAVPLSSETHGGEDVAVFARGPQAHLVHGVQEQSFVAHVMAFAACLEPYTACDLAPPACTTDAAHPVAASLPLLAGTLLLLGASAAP
In test [28] the target is T2, Intestinal-type alkaline phosphatase. Briefly: activation of human intestinal alkaline phosphatase – biochemical, luminescent, uHTS hits, set 2, dose response (AID 488817).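 Note: potency of activators that raise enzyme activity.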 The format is functional.
Test [29] has as its target T3, Alkaline phosphatase, tissue-nonspecific isozyme (Homo sapiens, UniProt P05186).
T3 sequence (P05186 whole entry): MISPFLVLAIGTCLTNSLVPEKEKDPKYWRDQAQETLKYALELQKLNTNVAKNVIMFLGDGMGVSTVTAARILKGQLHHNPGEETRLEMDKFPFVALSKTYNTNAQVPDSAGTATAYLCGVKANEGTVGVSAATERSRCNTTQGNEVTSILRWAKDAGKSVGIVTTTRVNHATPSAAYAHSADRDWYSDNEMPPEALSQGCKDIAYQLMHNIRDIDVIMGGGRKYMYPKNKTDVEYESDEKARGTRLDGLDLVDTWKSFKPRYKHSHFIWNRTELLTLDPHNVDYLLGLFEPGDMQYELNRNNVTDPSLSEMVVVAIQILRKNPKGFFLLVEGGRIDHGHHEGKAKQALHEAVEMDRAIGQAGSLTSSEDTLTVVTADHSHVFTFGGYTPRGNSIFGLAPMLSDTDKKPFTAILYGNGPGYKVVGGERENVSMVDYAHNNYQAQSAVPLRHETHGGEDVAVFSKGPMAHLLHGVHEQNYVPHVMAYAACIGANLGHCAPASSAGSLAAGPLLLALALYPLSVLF
Briefly: activation of tissue-nonspecific alkaline phosphatase – biochemical, TNAP isozyme, human IAP uHTS hits, selectivity assay for human IAP activator project, dose response (AID 488886).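 Note: potency of compounds raising TNAP activity as a selectivity check on IAP activators.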 The format is functional.

The nature of test [30]: Counterscreen for AddAB inhibitors: absorbance-based bacterial cell-based high throughput dose response assay for inhibitors of bacterial viability. [Related pubchem assays (depositor defined):AID435030, AID449728, AID449731, AID488942, AID488955, AID488956]. In kind it is functional. A general note: Counterscreens check selectivity or assay interference.
Test [31] relates to INS1. Briefly: INS-1E survival protection against cytokine death – cell-based, luminescence, retest, dose response (AID 449756).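 Note: cell death triggered by IL-1 beta plus TNF-alpha plus IFN-gamma mixture; protective hits raise ATP signal compared with cytokine alone wells.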 The format is functional. The conditions noted are these: Rattus norvegicus.

As a reminder, the AC50 is the concentration at which the activity in the assay is half-maximal.

Active and inactive are the calls of the source.

Sequence of ATP-dependent molecular chaperone HSP82 (C4YTQ8 whole entry): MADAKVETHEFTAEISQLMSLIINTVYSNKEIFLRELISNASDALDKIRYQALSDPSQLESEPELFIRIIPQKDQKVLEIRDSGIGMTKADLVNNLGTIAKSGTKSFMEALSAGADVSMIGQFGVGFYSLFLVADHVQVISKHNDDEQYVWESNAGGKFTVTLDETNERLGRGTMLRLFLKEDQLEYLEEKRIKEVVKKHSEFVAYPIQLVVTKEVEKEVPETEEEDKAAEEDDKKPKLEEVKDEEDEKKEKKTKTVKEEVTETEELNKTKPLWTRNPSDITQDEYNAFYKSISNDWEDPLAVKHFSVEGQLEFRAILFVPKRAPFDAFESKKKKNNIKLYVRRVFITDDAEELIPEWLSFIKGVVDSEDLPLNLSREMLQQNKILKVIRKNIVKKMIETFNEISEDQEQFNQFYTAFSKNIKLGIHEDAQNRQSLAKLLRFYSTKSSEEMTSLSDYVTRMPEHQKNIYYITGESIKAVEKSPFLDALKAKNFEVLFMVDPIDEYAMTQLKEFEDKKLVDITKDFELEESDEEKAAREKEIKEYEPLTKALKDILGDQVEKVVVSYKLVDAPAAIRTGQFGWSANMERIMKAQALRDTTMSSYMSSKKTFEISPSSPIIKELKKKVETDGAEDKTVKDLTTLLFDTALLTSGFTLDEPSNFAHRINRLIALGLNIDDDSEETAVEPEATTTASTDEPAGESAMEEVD

Regarding `COc1ccc2c(c1OC)C(=O)N1c3ccccc3COC21` (stereo unspecified), in test [1], the AC50 is > 350 µM (inactive). Also, the IC50 in test [2] is > 47.1 µM (inactive). Besides, the EC50 in test [3] is > 53 µM (inactive).
Take `COc1ccc(NC(=O)c2ccc3[nH]c(C)c(C)c3c2)cc1`: the AC50 in test [1] was 47.9 µM (active).
Regarding `O=C1NC(=O)/C(=C\c2ccc(O)cc2O)S1`, the IC50 in [4] was 2.2 µM (active). Besides, the AC50 in test [5] is 1.78 µM (active); in [6] it was 0.56 µM (active); in [7], 2.07 µM (active).
As to `CCOc1ccc(-c2nc(CSCC(=O)NCc3ccco3)c(C)o2)cc1`, the EC50 was 15.4 µM (not active) in [8], > 8 µM (not active) in test [9] and 20.3 µM (inactive) in test [10]. For the same compound, the IC50 was > 80 µM (inactive) in test [11]; 54.4 µM (inactive) in [13] (Homo sapiens, HEK293); 53.1 µM (inactive) in test [13] (hek293); > 79 µM (inactive) in test [14]; 25.2 µM (inactive) in [15]. Also, the AC50 in test [12] was 32 µM (active).
On to `CCN(CC)C(=O)CCc1nc(-c2ccc(C(C)(C)C)cc2)no1`, for which the IC50 in [13] (Homo sapiens, HEK293) is 54.7 µM (inactive); in test [13] (hek293) it was 51.5 µM (inactive); in test [14] it was 47.8 µM (inactive); in [15], 19.7 µM (active).
On to `CCCCCCc1c(C)nc(-n2[nH]c(C)c(CCO)c2=O)[nH]c1=O`, for which the EC50 in test [16] was > 160 µM (inactive); in [17], 0.635 µM (active); in test [18], > 180 µM (inactive); in test [19], > 160 µM (inactive).
In the case of `O=c1c2ccccc2nc(N/N=C/c2c(O)ccc3ccccc23)n1O`, the EC50 in [16] is > 150 µM (inactive); in test [20], < 0.1 µM (active); in [21], 0.601 µM (active); in [22], 1.26 µM (active); in test [23], < 0.1 µM (active); in test [17], 0.212 µM (active). Moreover, the EC50 in test [18] is > 180 µM (inactive); in test [24], > 12 µM (inconclusive); in [27], 13.6 µM (active); in [28] it was 31 µM (active); in test [29], > 100 µM (inactive); in [19] it was 18.1 µM (active). In addition, the results for the IC50 in test [25], in test [26] and in [30] were > 119 µM (inactive), 75.3 µM (active) and > 119 µM (inactive), respectively. In test [31], the AC50 was 1.23 µM (active).
